From article PMC11078216, “Discovery of potent and selective activity-based probes (ABPs) for the deubiquitinating enzyme USP30” (RSC Chemical Biology, 2024)

What was measured:
Test in all cases: ABPP chemical proteomics (LC-MS/MS) in HEK293T cells
Type in all cases: cell-based
DESI2 = molecular target: T1, DESI2 (Homo sapiens, UniProt Q9BSY9)
T1 construct: endogenous in cells; host or cells: HEK293T
Procedure: (§1) To explore the selectivity of IMP-2587 and IMP-2586 across the whole proteome, we performed quantitative activity-based protein profiling (ABPP) in HEK293T cells following treatment with IMP-2587 or IMP-2586 (Fig. 3a). After ABP incubation, cells were lysed, and probe-labelled proteins were ligated to biotinylated capture reagents.[27] […] USP30 was outcompeted by corresponding parent inhibitors for each ABP (Fig. 5b and d and Tables S3 and S5, ESI ^†), confirming the high potency and rapid engagement of IMP-2587 and IMP-2586 in cells. […] DESI1 and DESI2 are small ubiquitin-related modifier (SUMO) proteases,[3,29–32] and IMP-2587 and IMP-2586 may offer a starting point for future development of DESI ABPs. […]
(§2) d) Live cell probe incubation, lysate click chemistry and precipitation 6-well HEK293T cells were incubated with media containing compounds ABP 2 and ABP 4 at indicated concentrations for 1 h at 37 °C. The cells were washed with PBS and lysed with lysis buffer (50 μL (1% (v/v) Triton X-100, 0.1% (w/v) sodium dodecyl sulfate (SDS), EDTA-free complete protease inhibitor cocktail (1×, Roche) in PBS on ice for 10 min. The lysates were scraped and transferred to corresponding Lo-Bind Eppendorfs. Each lysate was sonicated for 1 minute, and the samples centrifuges at 5,000 x g at 4 °C for 5 minutes to pellet insoluble cellular debris. The supernatant was collected, and protein concentration was determined using the DC Protein Assay (Bio-Rad) as per manufacturer’s instructions, and normalised to lowest concentrated sample (e.g. 1 mg/mL, using lysis buffer). The following “click mixture” was prepared separately, preparing 6 μL for every 100 μL of […]
(§3) Capture reagent (AzRB/AzT for ABP 2, YnT/YnB for ABP 4 10 mM in DMSO, 1 vol; final concentration […]
(§4) CuSO4 (50 mM in water, 2 vol; final concentration in reaction 1 mM)
(§5) TCEP (50 mM in water, 2 vol; final concentration in reaction 1 mM)
(§6) TBTA (10 mM in DMSO, 1 vol; final concentration in reaction 100 µM)
(§7) The click mixture was vortexed and incubated at room temperature for 2 min before 6 μL of the mixture was added to every 100 μL of lysate. The reaction mixtures were shaken at room temperature for 1 h before being quenched with EDTA (500 mM in H2O) to a final concentration of 10 mM.
(§8) Proteins were precipitated by adding H2O (1 vol), MeOH (2 vol) and CHCl3 (0.5 vol), vortexing briefly then centrifuging at 17,000 × g for 5 min. The top H2O/MeOH layer was discarded and the middle layer of protein pellet and lower CHCl3 layer retained. The suspension was washed with MeOH (300 μL), and sonicated to break up the pellet. The proteins were pelleted by centrifugation at 10,000–17000 × g for 5–10 min or until a compact pellet was formed. The protein pellet was washed once more with MeOH (1 mL). The pellet was resuspended by sonicating and completely dissolving in 1% (w/v) SDS in PBS (to 5 mg/mL protein) before being made up to 1 mg/mL protein with PBS. […]
(§9) f) Neutravidin biotin enrichment (Affinity pull-down)
(§10) Click chemistry and precipitation steps were carried out as described in section 3.2.d, on at least 400ug of protein per sample. The pellet was resuspended by sonicating and completely dissolving in 1% (w/v) SDS in HEPES 50 mM pH 8.0, before being made up to 1 mg/mL protein with HEPES 50 mM pH 8.0 to […]
(§11) achieve a final concentration of 0.2% SDS. 20uL of each samples was collected as TL (Total lysate) samples. Pull down of biotinylated proteins was achieved by incubating samples with pre-equilibrated (3x 1 mL washes with 0.2% (w/v) SDS in HEPES 50 mM pH 8 buffer) Pierce™ NeutrAvidin™ Agarose beads for 3 hours at room temperature. NeutrAvidin™ Agarose beads were used in ratio of 1 μL bead resin per 10ug of protein sample. The beads were subsequently washed by moderate shaking for 10 seconds then briefly pelleting by table-top centrifuge then vacuum aspirating the supernatant with fine-end pipette tips (to not disturb the agarose) after collecting 20 µL supernatant as SN (supernatant […]
(§12) ) samples. […]

DESI1 = molecular target: T2, DESI1 (Homo sapiens, UniProt Q6ICB0)
T2 construct: endogenous in cells; host or cells: HEK293T
T2 sequence (Q6ICB0 1-168): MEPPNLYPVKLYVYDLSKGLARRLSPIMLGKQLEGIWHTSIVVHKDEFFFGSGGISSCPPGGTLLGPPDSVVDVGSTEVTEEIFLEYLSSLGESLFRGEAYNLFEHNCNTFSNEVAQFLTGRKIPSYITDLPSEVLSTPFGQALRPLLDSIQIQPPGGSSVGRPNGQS
Procedure: as §1, §2, §3, §4, §5, §6, §7, §8, §9, §10, §11, §12

ISOC2 = molecular target: T3, ISOC2 (Homo sapiens, UniProt Q96AB3)
T3 construct: endogenous in cells; host or cells: HEK293T
T3 sequence (Q96AB3 1-205): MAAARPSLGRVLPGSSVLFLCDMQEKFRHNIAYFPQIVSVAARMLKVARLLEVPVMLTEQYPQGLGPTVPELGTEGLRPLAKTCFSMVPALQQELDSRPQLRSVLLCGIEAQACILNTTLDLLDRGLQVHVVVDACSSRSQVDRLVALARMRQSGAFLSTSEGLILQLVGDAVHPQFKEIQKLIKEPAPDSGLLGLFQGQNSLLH
Procedure: as §1, §2, §3, §4, §5, §6, §7, §8, §9, §10, §11, §12

USP30 = molecular target: T4, USP30 (Homo sapiens, UniProt Q70CQ3); conditions: for probe concentration for detection of USP30 activity in intact cells: 10 min incubation; for Difference (log2 fold change of enrichment): USP30
T4 construct: We next determined cellular engagement of endogenous USP30 with IMP-2587 or IMP-2586; endogenous in cells; host or cells: HEK293T
T4 sequence (Q70CQ3 1-517): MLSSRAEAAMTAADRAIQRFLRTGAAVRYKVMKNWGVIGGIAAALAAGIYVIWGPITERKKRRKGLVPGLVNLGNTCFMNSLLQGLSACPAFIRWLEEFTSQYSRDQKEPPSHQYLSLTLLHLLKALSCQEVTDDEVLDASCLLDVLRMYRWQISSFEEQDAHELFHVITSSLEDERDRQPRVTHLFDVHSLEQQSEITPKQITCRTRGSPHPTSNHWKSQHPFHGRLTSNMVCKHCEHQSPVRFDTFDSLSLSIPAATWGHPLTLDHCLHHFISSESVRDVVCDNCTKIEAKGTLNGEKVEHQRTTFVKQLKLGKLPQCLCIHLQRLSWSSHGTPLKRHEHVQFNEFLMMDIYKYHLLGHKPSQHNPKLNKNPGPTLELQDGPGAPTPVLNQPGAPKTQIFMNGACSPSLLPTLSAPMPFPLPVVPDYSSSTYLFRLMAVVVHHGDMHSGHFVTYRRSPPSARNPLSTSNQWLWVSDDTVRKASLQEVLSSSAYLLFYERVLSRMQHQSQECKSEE
Procedure: as §1, §2, §3, §4, §5, §6, §7, §8, §9, §10, §11, §12

[1] = IMP-2586 labelling vs DMSO, 30 nM, 10 min, HEK293T (Table S4, Fig.5c)
[2] = IMP-2587 labelling vs DMSO, 30 nM, 10 min, HEK293T (Table S2, Fig.5a)
[3] = compound 1 out-competition with IMP-2587 labelling, HEK293T (Table S3, Fig.5b)
[4] = compound 3 out-competition with IMP-2586 labelling, HEK293T (Table S5, Fig.5d)

T1 sequence (Q9BSY9 whole entry): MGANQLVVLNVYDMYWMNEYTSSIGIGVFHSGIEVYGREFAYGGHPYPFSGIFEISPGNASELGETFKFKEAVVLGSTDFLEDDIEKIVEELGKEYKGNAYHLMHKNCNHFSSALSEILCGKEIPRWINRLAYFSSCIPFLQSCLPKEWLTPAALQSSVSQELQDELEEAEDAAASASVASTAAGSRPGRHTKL

## N#CN1CC[C@@H](NC(=O)c2cc(-c3ccccc3Oc3ccc(N=[N+]=[N-])cc3)n[nH]2)C1 [IMP-2586]
DESI2; [1]
  Difference (log2 fold change of enrichment): 3.40
DESI1; [1]
  Difference (log2 fold change of enrichment): 3.04
ISOC2; [1]
  Difference (log2 fold change of enrichment): 3.62
USP30
  probe concentration for detection of USP30 activity in intact cells: 30 nM
USP30; [1]
  Difference (log2 fold change of enrichment): 4.80

## C#Cc1cccc(-c2cc(NC(=O)CC3CCN(C#N)C3)on2)c1 (centres unmarked) [IMP-2587]
DESI2; [2]
  Difference (log2 fold change of enrichment): 2.02
DESI1; [2]
  Difference (log2 fold change of enrichment): 3.61
ISOC2; [2]
  Difference (log2 fold change of enrichment): 3.87
USP30
  probe concentration for detection of USP30 activity in intact cells: 30 nM

## N#CN1CC[C@H](CC(=O)Nc2cc(-c3cccc(Cl)c3)no2)C1 [compound 1, reference compound]
DESI2; [3]
  Difference (log2 fold change of enrichment): -1.75
DESI1; [3]
  Difference (log2 fold change of enrichment): -3.45
ISOC2; [3]
  Difference (log2 fold change of enrichment): -3.53
USP30; [3]
  Difference (log2 fold change of enrichment): -1.82

## N#CN1CC[C@@H](NC(=O)c2cc(-c3ccccc3Oc3ccccc3)n[nH]2)C1 [compound 3, reference compound]
DESI2; [4]
  Difference (log2 fold change of enrichment): -3.13
DESI1; [4]
  Difference (log2 fold change of enrichment): -2.81
ISOC2; [4]
  Difference (log2 fold change of enrichment): -3.08
USP30; [4]
  Difference (log2 fold change of enrichment): -4.18
